Literature values in patent US20180296814A1, “ADMINISTRATION OF DRUGS TO A PATIENT” (Progenity, Inc., priority 2010, published 2018).

Conditions: regional absorption in the intestinal tract, rats

salmon calcitonin
location of maximum absorption: ileum
